For one assay, the target named is PTRGER4 (EP4) (Homo sapiens (Human), UniProt P35408). The experiment in a line: hEP4 b-arrestin assay (PathHunter HEK 293 PTGER4 b-arrestin cells). The format is cell-based. In a few lines:
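Antagonist mode: compound is given 15 min at 37 °C, then 20 nM (final) PGE2 for 120 min, in HEK293 cells stably expressing EP4 fused to ProLink and β-arrestin 2 fused to EA. Recruitment read as β-gal luminescence after 1 h reagent at room temperature, as percent of DMSO control.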

The target of another assay is PTGER2 (EP2) (Homo sapiens (Human), UniProt P43116). The experiment in a line: hEP2 b-arrestin assay (PathHunter HEK 293 PTGER2 b-arrestin cells). The assay is classed as cell-based. In short, it runs like this:
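Readout is β-galactosidase complementation luminescence, expressed as percent of DMSO control (duplicates). PathHunter HEK293 EP2/β-arrestin 2 cells, grown 24 h, received compound for 15 min at 37 °C before a 120 min challenge with PGE2 at 5 μM final, followed by 1 h detection at room temperature.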

Where [1] appears, read: antagonistic activity on hEP4, mean where measured multiple times.
[2] abbreviates: antagonistic activity on hEP2, mean where measured multiple times.
The mark [3] stands for this setting: hEP4 b-arrestin assay (values without asterisk).
Setting [4] is: hEP2 b-arrestin assay (values without asterisk).

Chain of PTRGER4 (EP4) (P35408 whole entry, looked up, the tested form may be a part): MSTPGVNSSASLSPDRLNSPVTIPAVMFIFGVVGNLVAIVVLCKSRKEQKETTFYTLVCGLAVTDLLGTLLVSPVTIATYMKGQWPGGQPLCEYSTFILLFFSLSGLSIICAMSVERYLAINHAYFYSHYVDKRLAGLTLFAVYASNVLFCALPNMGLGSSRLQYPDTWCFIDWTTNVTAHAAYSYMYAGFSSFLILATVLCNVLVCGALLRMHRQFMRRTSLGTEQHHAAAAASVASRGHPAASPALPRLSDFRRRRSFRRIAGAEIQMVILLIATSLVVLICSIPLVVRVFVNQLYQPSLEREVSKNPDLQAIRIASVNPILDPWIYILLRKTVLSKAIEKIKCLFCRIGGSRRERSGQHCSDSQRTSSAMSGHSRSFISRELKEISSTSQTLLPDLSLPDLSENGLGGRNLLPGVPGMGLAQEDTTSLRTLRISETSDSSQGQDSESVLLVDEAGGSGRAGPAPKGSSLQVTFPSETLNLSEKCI
Chain of PTGER2 (EP2) (P43116 whole entry): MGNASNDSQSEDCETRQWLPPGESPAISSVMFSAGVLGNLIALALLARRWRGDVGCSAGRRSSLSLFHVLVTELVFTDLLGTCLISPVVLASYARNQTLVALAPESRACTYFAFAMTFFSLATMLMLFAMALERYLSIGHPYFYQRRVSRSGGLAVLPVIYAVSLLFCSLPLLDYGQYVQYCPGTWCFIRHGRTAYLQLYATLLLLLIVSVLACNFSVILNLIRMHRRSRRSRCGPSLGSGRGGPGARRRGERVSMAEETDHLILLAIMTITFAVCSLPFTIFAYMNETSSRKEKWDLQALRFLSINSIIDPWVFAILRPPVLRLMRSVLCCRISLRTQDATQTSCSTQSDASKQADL

On to `Cc1cc2c(Cl)ccc(F)c2n1CCNc1cc(-c2cc(Cl)c(C(=O)O)s2)ncn1` [compound 14, 3-Chloro-5-{6-[2-(4-chloro-7-fluoro-2-methyl-indol-1-yl)-ethylamino]-pyrimidin-4-yl}-thiophene-2-carboxylic acid], for which the 50% inhibitory concentration (IC50) came to 82 nM at PTRGER4 (EP4) (setting [1]) and 4 nM against PTGER2 (EP2) (setting [2]).

Take `CCCc1cc(-c2cc(NCCn3c(C)cc4cccc(F)c43)ncn2)ccc1C(=O)O` [compound 125, 4-{6-[2-(7-Fluoro-2-methyl-indol-1-yl)-ethylamino]-pyrimidin-4-yl}-2-propyl-benzoic acid]: the IC50 against PTRGER4 (EP4) (setting [1]) turned out to be 932 nM; at PTGER2 (EP2) (setting [2]), 8 nM.

As to `CCOc1cc(-c2cc(NCC(C)n3c(C)cc4c(OC)ccc(F)c43)ncn2)sc1C(=O)O` (racemic) [Example 796, rac-3-Ethoxy-5-{6-[2-(7-fluoro-4-methoxy-2-methyl-indol-1-yl)-propylamino]-pyrimidin-4-yl}-thiophene-2-carboxylic acid], the values for the IC50 against PTRGER4 (EP4) (setting [3]) and at PTGER2 (EP2) (setting [4]) were 131 nM and 48 nM, respectively.

As to `COc1ccc(F)c2c1c(F)c(C#N)n2CCNc1cc(-c2cc(C(F)(F)F)c(C(=O)O)s2)ncn1` [Example 1059, 5-{6-[2-(2-Cyano-3,7-difluoro-4-methoxy-indol-1-yl)-ethylamino]-pyrimidin-4-yl}-3-trifluoromethyl-thiophene-2-carboxylic acid], the concentration for half-maximal inhibition (IC50) on PTRGER4 (EP4) (setting [3]) was found to be 3 nM; at PTGER2 (EP2) (setting [4]), 54 nM.

`CCOc1cc(-c2cc(NCCn3c(C#N)cc4c(OC)ccc(F)c43)ncn2)ccc1OCCC(=O)O` [Example 927, 3-(4-{6-[2-(2-Cyano-7-fluoro-4-methoxy-indol-1-yl)-ethylamino]-pyrimidin-4-yl}-2-ethoxy-phenoxy)-propionic acid]: the IC50 on PTRGER4 (EP4) (setting [3]) was determined as 3 nM; at PTGER2 (EP2) (setting [4]) it was 31 nM.

In the case of `COc1cc(F)cc2c1cc(C)n2CCNc1cc(-c2cc(OCC(F)(F)F)c(C(=O)O)s2)ncn1` [Example 838, 5-{6-[2-(6-Fluoro-4-methoxy-2-methyl-indol-1-yl)-ethylamino]-pyrimidin-4-yl}-3-(2,2,2-trifluoro-ethoxy)-thiophene-2-carboxylic acid], the figures for the half-inhibitory concentration (IC50) against PTRGER4 (EP4) (setting [3]) and at PTGER2 (EP2) (setting [4]) were 41 nM and 4 nM, respectively.

With `CCNC(=O)Nc1ccc(-c2cc(NCCn3c(C#N)cc4c(OC)ccc(F)c43)ncn2)cc1OC` [Example 982, 1-(4-{6-[2-(2-Cyano-7-fluoro-4-methoxy-indol-1-yl)-ethylamino]-pyrimidin-4-yl}-2-methoxy-phenyl)-3-ethyl-urea], the IC50 against PTRGER4 (EP4) (setting [3]) turned out to be 3 nM; at PTGER2 (EP2) (setting [4]) it was 18 nM.

Regarding `COc1cccc2c1cc(C)n2CCNc1cc(-c2ccc(C(=O)O)c(C3CC3)c2)ncn1` [compound 175, 2-Cyclopropyl-4-{6-[2-(4-methoxy-2-methyl-indol-1-yl)-ethylamino]-pyrimidin-4-yl}-benzoic acid], the results for the half-maximal inhibitory concentration (IC50) against PTRGER4 (EP4) (setting [1]) and against PTGER2 (EP2) (setting [2]) were 529 nM and 6 nM, respectively.

For `CCOc1cc(-c2cc(NCCn3c(C#N)cc4c(OC)ccc(F)c43)ncn2)ccc1C(=O)C(=O)O` [Example 934, (4-{6-[2-(2-Cyano-7-fluoro-4-methoxy-indol-1-yl)-ethylamino]-pyrimidin-4-yl}-2-ethoxy-phenyl)-oxo-acetic acid], the IC50 is 31 nM on PTRGER4 (EP4) (setting [3]) and 16 nM on PTGER2 (EP2) (setting [4]).

On to `Cc1ccc(Cl)c2c1cc(C)n2CCNc1cc(-c2ccc(C(=O)O)c(SCC(C)C)c2)ncn1` [compound 368], for which the IC50 on PTRGER4 (EP4) (setting [1]) was 360 nM; at PTGER2 (EP2) (setting [2]), 63 nM.

As to `Cc1cc(-c2cc(NCCn3c(C)cc4c(C)ccc(F)c43)ncn2)ccc1S(N)(=O)=O` [compound 135], the IC50 against PTRGER4 (EP4) (setting [1]) turned out to be 288 nM; against PTGER2 (EP2) (setting [2]), 96 nM.

As to `COc1ccc(F)c2c1cc(C)n2CCNc1cc(-c2ccc3c(c2)CC(=O)N3)ncn1` [compound 91, 5-{6-[2-(7-Fluoro-4-methoxy-2-methyl-indol-1-yl)-ethylamino]-pyrimidin-4-yl}-1,3-dihydro-indol-2-one], the half-maximal inhibitory concentration (IC50) was determined as 144 nM against PTRGER4 (EP4) (setting [1]) and 32 nM at PTGER2 (EP2) (setting [2]).

On to `COc1cccc2c1cc(C#N)n2CCNc1cc(-c2cc(F)c(C(=O)O)s2)ncn1` [Example 902, 5-{6-[2-(2-Cyano-4-methoxy-indol-1-yl)-ethylamino]-pyrimidin-4-yl}-3-fluoro-thiophene-2-carboxylic acid], for which the values for the IC50 against PTRGER4 (EP4) (setting [3]) and on PTGER2 (EP2) (setting [4]) were 8 nM and 3 nM, respectively.

For `CCNc1cc(-c2cc(NCCn3c(C)cc4cccc(C#N)c43)ncn2)ccc1C(=O)O` [compound 163], the results for the half-inhibitory concentration (IC50) on PTRGER4 (EP4) (setting [1]) and on PTGER2 (EP2) (setting [2]) were 842 nM and 111 nM, respectively.

Take `CCC1NC(=O)c2ccc(-c3cc(NCCn4c(C)cc5c(OC)cccc54)ncn3)cc21` (racemic) [compound 196]: the IC50 on PTRGER4 (EP4) (setting [1]) is 224 nM; against PTGER2 (EP2) (setting [2]), 12 nM.

`COc1cc(F)cc2c1cc(C)n2CCNc1cc(-c2ccc3cc[nH]c3c2)ncn1` [compound 63, [2-(6-Fluoro-4-methoxy-2-methyl-indol-1-yl)-ethyl]-[6-(1H-indol-6-yl)-pyrimidin-4-yl]-amine]: the IC50 at PTRGER4 (EP4) (setting [1]) was determined as 227 nM; on PTGER2 (EP2) (setting [2]) it was 26 nM.

`CCOc1cc(-c2cc(NCCn3c(C#N)cc4c(C)c(F)c(F)cc43)ncn2)sc1C(=O)O` [Example 890, 5-{6-[2-(2-Cyano-5,6-difluoro-4-methyl-indol-1-yl)-ethylamino]-pyrimidin-4-yl}-3-ethoxy-thiophene-2-carboxylic acid]: the IC50 came out at 23 nM against PTRGER4 (EP4) (setting [3]) and 2 nM at PTGER2 (EP2) (setting [4]).

Consider `CCCOc1cc(-c2cc(NCCn3c(C#N)cc4c(OC)ccc(F)c43)ncn2)cc(F)c1C(=O)O` [Example 908, 4-{6-[2-(2-Cyano-7-fluoro-4-methoxy-indol-1-yl)-ethylamino]-pyrimidin-4-yl}-2-fluoro-6-propoxy-benzoic acid], for which the IC50 against PTRGER4 (EP4) (setting [3]) is 33 nM; at PTGER2 (EP2) (setting [4]), 17 nM.

Consider `CCOc1cc(-c2cc(NCCn3c(C)cc4c(Cl)ccc(F)c43)ncn2)ccc1C(=O)O` [compound 281], for which the IC50 at PTRGER4 (EP4) (setting [1]) amounted to 435 nM; on PTGER2 (EP2) (setting [2]), 27 nM.

`N#Cc1cc2c(Cl)cc(F)c(F)c2n1CCNc1cc(-c2cc(F)c(C(=O)O)s2)ncn1` [Example 904, 5-{6-[2-(4-Chloro-2-cyano-6,7-difluoro-indol-1-yl)-ethylamin0]-pyrimidin-4-yl}-3-fluoro-thiophene-2-carboxylic acid]: the IC50 at PTRGER4 (EP4) (setting [3]) was 49 nM; against PTGER2 (EP2) (setting [4]), 1 nM.

As for `Cc1ccc(F)c2c1cc(C)n2CCNc1cc(-c2ccc(C3(C(=O)O)CC3)c(F)c2)ncn1` [compound 378], the values for the IC50 on PTRGER4 (EP4) (setting [1]) and against PTGER2 (EP2) (setting [2]) were 449 nM and 340 nM, respectively.

As to `CCOc1cc(-c2cc(NCCn3c(C)cc4cc(Cl)cc(F)c43)ncn2)sc1C(=O)O` [compound 237], the IC50 at PTRGER4 (EP4) (setting [1]) came to 68 nM; at PTGER2 (EP2) (setting [2]), 13 nM.

For the compound `CCOc1cc(-c2cc(NCCn3c(C#N)cc4c(OC)ccc(F)c43)ncn2)ccc1-c1noc(=O)[nH]1` [Example 820], the half-maximal inhibitory concentration (IC50) against PTRGER4 (EP4) (setting [3]) came to 2 nM; at PTGER2 (EP2) (setting [4]), 6 nM.

For the compound `CCOc1cc(-c2cc(NCCn3c(C)cc4c(F)c(F)ccc43)ncn2)ccc1C(=O)O` [compound 278], the IC50 against PTRGER4 (EP4) (setting [1]) was determined as 999 nM; against PTGER2 (EP2) (setting [2]), 9 nM.

In the case of `CCNc1csc(-c2cc(NCCn3c(C)cc4c(C)cc(F)cc43)ncn2)c1` [Example 1069, [6-(4-Ethylamino-thiophen-2-yl)-pyrimidin-4-yl]-[2-(6-fluoro-2,4-dimethyl-indol-1-yl)-ethyl]-amine], the IC50 at PTRGER4 (EP4) (setting [3]) was 41 nM; against PTGER2 (EP2) (setting [4]), 9 nM.

On to `COc1cc(-c2cc(NCCn3c(C)cc4c(C)cccc43)ncn2)ccc1C(=O)O` [compound 35, 4-{6-[2-(2,4-Dimethyl-indol-1-yl)-ethylamino]-pyrimidin-4-yl}-2-methoxy-benzoic acid], for which the IC50 against PTRGER4 (EP4) (setting [1]) amounted to 952 nM; at PTGER2 (EP2) (setting [2]) it was 15 nM.

Regarding `CCOC(=O)C#Cc1ccc(-c2cc(NCCn3c(C#N)cc4c(OC)ccc(F)c43)ncn2)cc1OC` [Example 1050, (4-{6-[2-(2-Cyano-7-fluoro-4-methoxy-indol-1-yl)-ethylamino]-pyrimidin-4-yl}-2-methoxy-phenyl)-propynoic acid ethyl ester], the IC50 on PTRGER4 (EP4) (setting [3]) was 19 nM; against PTGER2 (EP2) (setting [4]), 34 nM.

Consider `CCCc1cc(-c2cc(NCCn3c(C)cc4c(F)ccc(Cl)c43)ncn2)cc(F)c1C(=O)O` [compound 340, 4-{6-[2-(7-Chloro-4-fluoro-2-methyl-indol-1-yl)-ethylamino]-pyrimidin-4-yl}-2-fluoro-6-propyl-benzoic acid], for which the IC50 against PTRGER4 (EP4) (setting [1]) was 645 nM; against PTGER2 (EP2) (setting [2]), 5 nM.

As for `CCOc1cc(-c2cc(NCCn3c(C#N)cc4c(Cl)cc(Cl)cc43)ncn2)sc1C(=O)O` [Example 889, 5-{6-[2-(4,6-Dichloro-2-cyano-indol-1-yl)-ethylamino]-pyrimidin-4-yl}-3-ethoxy-thiophene-2-carboxylic acid], the IC50 at PTRGER4 (EP4) (setting [3]) is 35 nM; against PTGER2 (EP2) (setting [4]), 1 nM.

Regarding `CCOc1cc(-c2cc(NCCn3c(C)cc4c(OC)ccc(F)c43)ncn2)ccc1-c1nc2ccccc2o1` [Example 849, [6-(4-Benzooxazol-2-yl-3-ethoxy-phenyl)-pyrimidin-4-yl]-[2-(7-fluoro-4-methoxy-2-methyl-indol-1-yl)-ethyl]-amine], the figures for the IC50 against PTRGER4 (EP4) (setting [3]) and on PTGER2 (EP2) (setting [4]) were 589 nM and 39 nM, respectively.

As for `COc1cc2[nH]ncc2cc1-c1cc(NCCn2c(C#N)cc3c(OC)ccc(F)c32)ncn1` [Example 981, 7-Fluoro-4-methoxy-1-{2-[6-(6-methoxy-1H-indazol-5-yl)-pyrimidin-4-ylamino]-ethyl}-1H-indole-2-carbonitrile], the IC50 is 58 nM at PTRGER4 (EP4) (setting [3]) and 59 nM at PTGER2 (EP2) (setting [4]).

The record behind these values is patent US12011444B2, “N-substituted indole derivatives as PGE2 receptor modulators” (Idorsia Pharmaceuticals Ltd, priority 2015, dated 2024).
